{"source": "patent US20250114313A1", "about": "“OLIGO-BENZAMIDE ANALOGS AND THEIR USE IN CANCER TREATMENT” (BOARD OF REGENTS, THE UNIVERSITY OF TEXAS SYSTEM, priority 2022, published 2025)", "key": {"[1]": {"system": "SUM-159 LIPA KO xenografts", "assay": "SUM-159 LIPA KO xenografts", "type": "in vivo, SCID mice", "conditions": "i.p., 10 mg/kg/day", "protocol": "Knockout studies: For xenograft knockout tumor models, 1.8×10^6SUM159 parental, or 1.8×10^6SUM159-LIPA KO cells were harvested with 1% trypsin-EDTA, washed and resuspended in sterile PBS. Cells were initially implanted into the mammary fat pads of six-week-old female C.B-17 (SCID) mice purchased from Envigo (Indianapolis, IN, USA). Mice were monitored twice weekly for tumor growth measured by Vernier calipers where tumor volume was calculated by the formula (length×width^2)/2. Tumors were dissected into 2 mm cubes when they reached 800 mm^3 in size and subsequently implanted into the mammary fat pad of twelve SCID female mice. Once tumor fragments reached 150 mm^3 in size, mice were randomly divided into vehicle group (n=6, control, 0.3% Hydroxy cellulose, i.p.) and treatment group (n=6, ERX-41, 10 mg/kg/day/i.p.). Institutional guidelines were followed to determine experimental end points."}, "SUM-159 cells": {"system": "SUM-159 cells", "assay": "Airyscan / live cell confocal imaging of ER tubule width, SUM-159 mCherry-RAMP4", "type": "cell-based, Human", "protocol": "Live cell confocal and Airyscan imaging: To visualize ER structure, stable SUM-159 cell lines expressing mCherry-RAMP4 were established. pLenti-X1-hygro-mCherry-RAMP4 was purchased from Addgene (Addgene #118391; //n2t.net/addgene:118391; RRID:Addgene_118391) (via Jacob Corn).^35 The live cell images were acquired by Confocal Zeiss LSM880 Airyscan. ER tubule width was calculated by drawing 1px-wide line scans perpendicular to the long axis of individual ER tubules. In MATLAB, the peak intensity along each line scan was determined and the distance between the half maximum intensity on either side of the peak was measured. The code for this analysis is available at: //github.com/andmoo91/HalfMaxScript."}, "Sum159 cells": {"system": "Sum159 cells", "assay": "DIA-MS of whole cell lysates", "type": "cell-based, Human", "conditions": "500 nM, 6 h", "protocol": "Mass spectrometry based DIA analyses of whole cell lysates: Sum159 cells were treated with vehicle or ERX-41 (500 nM). After 6 h of treatment, cells were pelleted and snap-frozen and then lysed in buffer containing 5% SDS/50 mM triethylammonium bicarbonate (TEAB) in the presence of protease and phosphatase inhibitors (Halt; Thermo Scientific) and nuclease (Pierce™ Universal Nuclease for Cell Lysis; Thermo Scientific). Aliquots corresponding to 100 μg protein (EZQ™ Protein Quantitation Kit; Thermo Scientific) were reduced with tris (2-carboxyethyl)phosphine hydrochloride (TCEP), alkylated in the dark with iodoacetamide and applied to S-Traps (mini; Protifi) for tryptic digestion (sequencing grade; Promega) in 50 mM triethylammonium bicarbonate (TEAB). Peptides were eluted from the S-Traps with 0.2% formic acid in 50% aqueous acetonitrile and quantified using Pierce™ Quantitative Fluorometric Peptide Assay (Thermo Scientific). Data-independent acquisition mass spectrometry (DIA-MS) was conducted on an Orbitrap Fusion Lumos mass spectrometer (Thermo Scientific). On-line HPLC separation was accomplished with an RSLC NANO HPLC system (Thermo Scientific/Dionex: column, PicoFrit™ (New Objective; 75 μm i.d.) packed to 15 cm with C18 adsorbent (Vydac; 218MS 5 μm, 300 Å); mobile phase A, 0.5% acetic acid (HAc)/0.005% trifluoroacetic acid (TFA) in water, mobile phase B, 90% acetonitrile/0.5% HAc/0.005% TFA/9.5% water; gradient 3 to 42% B in 120 min; flow rate, 0.4 μl/min. A pool was made of the 6 samples (three replicates from each group), and 2-μg peptide aliquots were analyzed using gas-phase fractionation and 4-m/z windows (30k resolution for precursor and product ion scans, all in the orbitrap) to create a DIA chromatogram library^40 by searching against a Prosit-generated predicted spectral library^41 based on the UniProt_human_20191022 protein sequence database. Experimental samples were blocked by replicate and randomized within each replicate for sample preparation and analysis; injections of 2 μg of peptides and a 2-h HPLC gradient were employed. […]"}, "[2]": {"system": "TNBC cells (SUM-159, MDA-MB-231)", "assay": "MTT cell viability, TNBC cells", "type": "cell-based, Human", "conditions": "for pIC50: MTT cell viability assays, read-out: antiproliferative IC50 against TNBC cells", "protocol": "Cell viability assays: Cells were seeded in 96-well plates (2×10^3 cells/well) one day before the treatment. Cells were treated with varying concentrations of ERX-41 or ERX-11 analogs for 3-6 days. Then effects of ERX-41 or ERX-11 analogs on cell viability were measured in triplicate or sextuplicate with multiple biological replicates using the WST-1 (Promega), MTT as previously described^33 or CellTiter-Glo 2.0 (Promega) assays."}, "[3]": {"conditions": "parental SUM-159, 1 μM, from ~200 nm"}}, "note": "pIC50: −log10 of the molar value. Read-outs that look alike come from different tables or passages of the source."}
{"smiles": "CC(C)COc1cc(C(=O)Nc2ccc(C(=O)N[C@H]3CC[C@H](C)CC3)cc2OCC(C)C)ccc1NC(=O)c1ccc([N+](=O)[O-])c(OCCO)c1", "note": "[ERX-41]", "values": [{"measurement": "response of LIPA KO xenografts", "setting": "[1]", "value": "did not respond"}, {"measurement": "ER tubule width, mean±S.D., airyscan", "setting": "SUM-159 cells; 1 μM, 2 h, 0 h = 260±80 nm", "value": "660±320", "unit": "nm"}, {"measurement": "measured ER dilation following treatment", "setting": "SUM-159 cells; discussion", "value": "~600", "unit": "nm"}, {"measurement": "ER tubule diameter, live cell confocal, 2 h", "setting": "SUM-159 cells; [3]", "value": "~500", "unit": "nm"}, {"measurement": "ER tubule diameter, live cell confocal, 4 h", "setting": "SUM-159 cells; [3]", "value": "~620", "unit": "nm"}, {"measurement": "number of cellular proteins with significantly affected expression", "setting": "Sum159 cells", "value": 189}, {"measurement": "number of down-regulated proteins", "setting": "Sum159 cells", "value": 153}, {"measurement": "number of up-regulated proteins", "setting": "Sum159 cells", "value": 36}, {"measurement": "pIC50", "setting": "[2]; Homo sapiens", "value": "6.90 to 7.00"}, {"measurement": "pIC50", "setting": "[2]", "value": 7.00}, {"measurement": "enhancement of potency in TNBC, ERX-41 vs ERX-11", "setting": "[2]; from IC50>10 μM to 100 nM", "value": "> 100", "unit": "fold"}]}
